Molecules are shown by their SMILES. “And” between values parts separate entries of the source, which are not always exact repeats. Equal entries are not always repeated. Inconclusive results and toxic doses are left out.

The test system of this assay is L1210 leukemia ip in BDF1 mice, survival T/C. Put plainly: NCI In Vivo Anticancer Drug Screen. Data for tumor model L1210 Leukemia (intraperitoneal) in B6D2F1 (BDF1) mice. Conditions: endpoint: mean survival time, higher = longer survival. In a few lines:
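Ratio derived from survival: compound-dosed mice over vehicle-dosed mice, all bearing a transplantable tumor.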

Setting [1] is: dose: 100.0 mg/kg/injection, schedule: Q01DX001 (ip), vehicle: saline.
The mark [2] stands for this setting: dose: 100.0 mg/kg/injection, schedule: Q01DX001 (ip), vehicle: Klucel (hydroxypropylcellulose) (HPC).
The mark [3] stands for this setting: dose: 200.0 mg/kg/injection, schedule: Q01DX001 (ip), vehicle: Klucel (hydroxypropylcellulose) (HPC).
[4] abbreviates: dose: 100.0 mg/kg/injection, schedule: Q01DX009 (ip), vehicle: Klucel (hydroxypropylcellulose) (HPC).
Setting [5] is: dose: 100.0 mg/kg/injection, schedule: Q04DX003 (ip), vehicle: Klucel (hydroxypropylcellulose) (HPC).
The mark [6] stands for this setting: dose: 200.0 mg/kg/injection, schedule: Q04DX003 (ip), vehicle: Klucel (hydroxypropylcellulose) (HPC).
Where [7] appears, read: dose: 200.0 mg/kg/injection, schedule: Q01DX001 (ip), vehicle: saline.
Setting [8] is: dose: 400.0 mg/kg/injection, schedule: Q01DX001 (ip), vehicle: saline.
[9] abbreviates: dose: 100.0 mg/kg/injection, schedule: Q04DX002 (ip), vehicle: Klucel (hydroxypropylcellulose) (HPC).
Where [10] appears, read: dose: 200.0 mg/kg/injection, schedule: Q04DX002 (ip), vehicle: Klucel (hydroxypropylcellulose) (HPC).
The mark [11] stands for this setting: dose: 400.0 mg/kg/injection, schedule: Q01DX001 (ip), vehicle: Klucel (hydroxypropylcellulose) (HPC).

With `CN(C)/N=N/c1[nH]ncc1C(N)=O`, the T/C by setting is: under setting [1], 113 % of control; (dose: 108.0 mg/kg/injection, schedule: Q01DX009 (ip), vehicle: saline) 176 % of control; (dose: 300.0 mg/kg/injection, schedule: Q01DX009 (ip), vehicle: saline) 110 % of control; (dose: 600.0 mg/kg/injection, schedule: Q01DX001 (ip), vehicle: saline) 156 % of control.

As for `Oc1c(I)cc(I)c2cccnc12`, the T/C is, setting by setting: under setting [2], 102 % of control; under setting [3], 106 % of control.

Consider `O=C(O)CCC(=O)Nc1ccc(F)cc1`, for which the T/C was 103 % of control under setting [4]; 93 % of control (dose: 200.0 mg/kg/injection, schedule: Q01DX009 (ip), vehicle: Klucel (hydroxypropylcellulose) (HPC)); 93 % of control (dose: 400.0 mg/kg/injection, schedule: Q01DX009 (ip), vehicle: Klucel (hydroxypropylcellulose) (HPC)).

`O=S(=O)(O)c1ccc(-c2ccccc2)cc1`: the T/C is, setting by setting: (dose: 50.0 mg/kg/injection, schedule: Q01DX009 (ip), vehicle: Klucel (hydroxypropylcellulose) (HPC)) 106 % of control; under setting [4], 94 % of control; under setting [5], 89 % of control; under setting [6], 94 % of control.

Turning to `CC(C)OC(=O)c1ccc(N)cc1S(N)(=O)=O`, for the setting “dose: 100.0 mg/kg/injection, schedule: Q01DX001 (ip), vehicle: other”, the T/C was 106 % of control.

As for `CCN(c1ccccc1)C1CCCCC1=O` (stereo not given), the T/C is 101 % of control under setting [1], 106 % of control under setting [7] and 104 % of control under setting [8].

Regarding `COC(=O)c1cc(C)n(C)c(=O)c1CNC(=O)c1ccccc1`, the T/C is, setting by setting: (dose: 100.0 mg/kg/injection, schedule: Q01DX009 (ip), vehicle: saline) 97 % of control; (dose: 100.0 mg/kg/injection, schedule: Q04DX003 (ip), vehicle: saline) 107 % of control; (dose: 200.0 mg/kg/injection, schedule: Q01DX009 (ip), vehicle: saline) 96 % of control; (dose: 200.0 mg/kg/injection, schedule: Q04DX003 (ip), vehicle: saline) 97 % of control; (dose: 400.0 mg/kg/injection, schedule: Q01DX009 (ip), vehicle: saline) 97 % of control; (dose: 400.0 mg/kg/injection, schedule: Q04DX003 (ip), vehicle: saline) 91 % of control.

As for `CCOC(=O)/C(O)=C\c1cc[n+]([O-])nc1Cl`, the T/C runs as follows: under setting [9], 101 % of control; under setting [10], 101 % of control; (dose: 400.0 mg/kg/injection, schedule: Q04DX002 (ip), vehicle: Klucel (hydroxypropylcellulose) (HPC)) 101 % of control.

Turning to `O=[N+]([O-])c1cccc(/C=[N+](\[O-])c2ccccc2)c1`, the T/C is, setting by setting: (dose: 50.0 mg/kg/injection, schedule: Q01DX001 (ip), vehicle: saline) 100 % of control; under setting [1], 96 % of control; under setting [7], 100 % of control; under setting [8], 102 % of control.

As to `COc1ccccc1-n1c(O)c(N=Nc2ccc(Br)cc2)c(=O)n(-c2ccccc2)c1=S`, the T/C is 102 % of control under setting [2], 121 % of control under setting [3] and 102 % of control under setting [11].

Turning to `CC(=O)OC1CC2(CO2)C2CC3OC3(C)C2C2OC(=O)C(C)C12` (stereo not given), the T/C is, setting by setting: (dose: 12.5 mg/kg/injection, schedule: Q04DX002 (ip), vehicle: saline) 95 % of control; (dose: 25.0 mg/kg/injection, schedule: Q04DX002 (ip), vehicle: saline) 92 % of control; (dose: 50.0 mg/kg/injection, schedule: Q04DX002 (ip), vehicle: saline) 110 % of control; (dose: 75.0 mg/kg/injection, schedule: Q04DX002 (ip), vehicle: saline) 97 % of control; (dose: 100.0 mg/kg/injection, schedule: Q04DX002 (ip), vehicle: saline) 95 % of control; (dose: 115.0 mg/kg/injection, schedule: Q04DX002 (ip), vehicle: saline) 104 % of control. The T/C reads like this: (dose: 170.0 mg/kg/injection, schedule: Q04DX002 (ip), vehicle: saline) 104 % of control; (dose: 200.0 mg/kg/injection, schedule: Q04DX002 (ip), vehicle: saline) 110 % of control; (dose: 400.0 mg/kg/injection, schedule: Q04DX002 (ip), vehicle: saline) 95 % of control.

With `CSC1=Nc2c(C)nn(C)c2C(c2ccccc2)S1` (stereo not given), the T/C was 100 % of control and 112 % of control (dose: 100.0 mg/kg/injection, schedule: Q04DX002 (ip), vehicle: saline with Tween-80); 97 % of control and 101 % of control (dose: 100.0 mg/kg/injection, schedule: Q04DX003 (ip), vehicle: saline with Tween-80); 104 % of control and 89 % of control (dose: 200.0 mg/kg/injection, schedule: Q04DX002 (ip), vehicle: saline with Tween-80); 96 % of control and 100 % of control (dose: 200.0 mg/kg/injection, schedule: Q04DX003 (ip), vehicle: saline with Tween-80); 94 % of control and 104 % of control (dose: 400.0 mg/kg/injection, schedule: Q04DX002 (ip), vehicle: saline with Tween-80); 96 % of control and 100 % of control (dose: 400.0 mg/kg/injection, schedule: Q04DX003 (ip), vehicle: saline with Tween-80).

Consider `Oc1ccc(Cl)cc1Br`, for which the T/C is 100 % of control (dose: 25.0 mg/kg/injection, schedule: Q01DX009 (ip), vehicle: saline with Tween-80); 88 % of control (dose: 50.0 mg/kg/injection, schedule: Q01DX009 (ip), vehicle: saline with Tween-80); 100 % of control (dose: 100.0 mg/kg/injection, schedule: Q01DX009 (ip), vehicle: saline with Tween-80).

Consider `Nc1ccc(S(=O)[O-])cc1.Nc1ccc(S(=O)[O-])cc1.[Zn+2]`, for which the T/C is 95 % of control (dose: 75.0 mg/kg/injection, schedule: Q01DX001 (ip), vehicle: saline); 96 % of control (dose: 150.0 mg/kg/injection, schedule: Q01DX001 (ip), vehicle: saline); 102 % of control (dose: 300.0 mg/kg/injection, schedule: Q01DX001 (ip), vehicle: saline).

In the case of `CCOC(=O)c1cccc(N(CCOS(C)(=O)=O)CCOS(C)(=O)=O)c1`, the T/C (dose: 16.0 mg/kg/injection, schedule: Q01DX015 (ip), vehicle: saline) is 110 % of control; the T/C (dose: 32.0 mg/kg/injection, schedule: Q01DX015 (ip), vehicle: saline) is 118 % of control; the T/C (dose: 64.0 mg/kg/injection, schedule: Q01DX015 (ip), vehicle: saline) is 111 % of control.

For the compound `COc1ccc(NNP(=O)(CCl)N(CCCl)CCCl)cc1` (stereo not given), the T/C is 104 % of control under setting [2], 108 % of control under setting [3] and 108 % of control under setting [11].

Regarding `Cc1ccc(S(=O)(=O)[n+]2ccc(C)cc2)cc1`, the T/C is 98 % of control under setting [9] and 95 % of control under setting [10].

Turning to `O=C(O)Cc1cccc(=O)n1Cc1ccccc1`, the T/C is 98 % of control (dose: 75.0 mg/kg/injection, schedule: Q04DX003 (ip), vehicle: Klucel (hydroxypropylcellulose) (HPC)); 100 % of control (dose: 150.0 mg/kg/injection, schedule: Q04DX003 (ip), vehicle: Klucel (hydroxypropylcellulose) (HPC)); 102 % of control (dose: 300.0 mg/kg/injection, schedule: Q04DX003 (ip), vehicle: Klucel (hydroxypropylcellulose) (HPC)).

On to `COC1c2c(nc3ccccc3c2C(=O)O)-c2ccccc2C1(C)C` (stereo not given), for which the T/C is, setting by setting: under setting [5], 104 % of control; under setting [6], 104 % of control; (dose: 400.0 mg/kg/injection, schedule: Q04DX003 (ip), vehicle: Klucel (hydroxypropylcellulose) (HPC)) 106 % of control.

As for `O=C(O)c1cccc(CBr)c1CBr`, the T/C reads like this: (dose: 6.25 mg/kg/injection, schedule: Q01DX001 (ip), vehicle: saline with Tween-80) 97 % of control; (dose: 6.25 mg/kg/injection, schedule: Q01DX009 (ip), vehicle: saline with Tween-80) 93 % of control; (dose: 12.5 mg/kg/injection, schedule: Q01DX001 (ip), vehicle: saline with Tween-80) 96 % of control; (dose: 12.5 mg/kg/injection, schedule: Q01DX009 (ip), vehicle: saline with Tween-80) 96 % of control; (dose: 25.0 mg/kg/injection, schedule: Q01DX001 (ip), vehicle: saline with Tween-80) 100 % of control.

For the compound `O=C(CCCN1CCC(O)CC1)c1ccc(N2CC=C(c3ccccc3)CC2)cc1`, the T/C under setting [9] is 104 % of control and the T/C under setting [10] is 100 % of control.

Source of the values: PubChem BioAssay AID248 (DTP/NCI, 2004).
